From ChEMBL document CHEMBL2203141, “Heterologously expressed β-hydroxyl fatty acids from a metagenomic library of a marine sponge” (2012) come the findings set out here.

Usually MIC stands for the smallest concentration in the dilution series that meets the test's criterion for growth inhibition.

Experiment [1] in a line: Antifungal activity against Penicillium commune by serial two-fold dilution microtiter plate method. The format is functional.
Experiment [2] can be described thus: Antifungal activity against […] mucilaginosa by serial two-fold dilution microtiter plate method. In kind it is functional.
The test system of a further experiment is Kluyveromyces marxianus. Nature of the experiment: Antifungal activity against Kluyveromyces marxianus by serial two-fold dilution microtiter plate method. The format is functional.
Another experiment relates to Wickerhamomyces anomalus. The experiment is described as follows: Antifungal activity against Pichia anomala by serial two-fold dilution microtiter plate method. The format is functional. As to conditions: Hansenula anomala.
For a further experiment, the system named is Penicillium roqueforti. The experiment is described as follows: Antifungal activity against Penicillium roqueforti by serial two-fold dilution microtiter plate method. The format is functional.
The test system of a further experiment is Aspergillus nidulans. The experiment is described as follows: Antifungal activity against Aspergillus nidulans by serial two-fold dilution microtiter plate method. The format is functional.
The subject of a further experiment is Aspergillus fumigatus. The experiment is described as follows: Antifungal activity against Aspergillus fumigatus by serial two-fold dilution microtiter plate method. The format is functional.
A further experiment deals with Escherichia coli. Nature of the experiment: Antibacterial activity against Escherichia coli by broth dilution method. In kind it is functional, organism-based. On the technique in general: In broth dilution the organism is exposed to a series of concentrations in liquid medium.
For another experiment, the system named is Candida albicans. The experiment is described as follows: Antifungal activity against Candida albicans by broth dilution. The format is functional.
A further experiment concerns Staphylococcus aureus. Nature of the experiment: Antibacterial activity against methicillin-resistant Staphylococcus aureus by broth dilution method. In kind it is functional, organism-based.
A further experiment has as its system Bacillus cereus. Nature of the experiment: Antibacterial activity against Bacillus cereus by broth dilution method. In kind it is functional.

≈ marks a conversion by molar mass, not a printed value. Calls of active or inactive are those of the source.

Turning to `CCCCCCCCC[C@@H](O)CC(=O)O`, the MIC (in experiment [1]; in experiment [2]; against Kluyveromyces marxianus; in the experiment with Wickerhamomyces anomalus; with Penicillium roqueforti; with Aspergillus nidulans) was 10 µg/mL (≈ 46.2 µM) in each case. In the experiment on Aspergillus fumigatus, this molecule returned an MIC of 10 µg/mL (≈ 46.2 µM).
Regarding `CCCCCCCCCCC[C@@H](O)CC(=O)O`, the minimal inhibitory concentration (MIC) (in experiment [1]; in [2]; against Kluyveromyces marxianus; against Wickerhamomyces anomalus; against Penicillium roqueforti; in the experiment with Aspergillus nidulans) was 10 µg/mL (≈ 40.9 µM) each time. Besides, in the experiment on Aspergillus fumigatus, the MIC was determined as 10 µg/mL (≈ 40.9 µM).
Regarding `CCCCCCCCCCCCC[C@@H](O)CC(=O)O`, the result with Escherichia coli and in the experiment with Staphylococcus aureus was inactive. Besides, the minimum inhibitory concentration (MIC) against Candida albicans was found to be 12.5 µg/mL (≈ 45.9 µM); in the experiment with Bacillus cereus, 6.25 µg/mL (≈ 22.9 µM).
